Legend:
[1] = target: human TYK2 (JH2domain-pseudokinase) (Homo sapiens (Human), UniProt P29597); test: TYK2 JH2 Domain Binding Assay (KINOMEscan)
How it was run: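 Competition binding of a DNA-tagged fusion of human TYK2 JH2 pseudokinase (G556–D888) with NFkB DNA-binding domain, from HEK293 extracts (<0.1 nM final), against immobilised ligand beads; 1 h shaking at room temperature, 0.9% DMSO. Bound kinase quantified by qPCR.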

JAK2 kinase domain (JH1) = JAK2 kinase domain (JH1) (Homo sapiens (Human), UniProt O60674); test: JAK2 Radioactive Kinase Assay; assay type: biochemical; settings: compound at 10 μM, ATP 10 μM; for inhibition at 10 µM: read-out: JAK2 JH1% Inhibition @ 10 μM
Sequence of JAK2 kinase domain (JH1) (O60674 849-1124): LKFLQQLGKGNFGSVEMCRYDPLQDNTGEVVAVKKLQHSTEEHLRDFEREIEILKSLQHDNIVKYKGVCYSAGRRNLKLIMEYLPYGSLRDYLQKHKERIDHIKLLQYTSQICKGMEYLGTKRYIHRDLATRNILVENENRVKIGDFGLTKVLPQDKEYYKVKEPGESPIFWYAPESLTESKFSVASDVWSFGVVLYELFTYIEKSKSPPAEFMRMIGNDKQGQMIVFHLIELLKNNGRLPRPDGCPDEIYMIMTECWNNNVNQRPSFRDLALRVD
How it was run: (§1)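 Single-point screen: 10 μM test compound, radioactive kinase read-out, percent inhibition reported for each kinase domain.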

Tyk2 kinase domain (DH1) = Tyk2 kinase domain (DH1) (Homo sapiens (Human), UniProt P29597); test: Tyk2 Radioactive Kinase Assay; assay type: biochemical; settings: compound at 10 μM, ATP 10 μM; for inhibition at 10 µM: read-out: Tyk2 JH1% Inhibition @ 10 μM
Sequence of Tyk2 kinase domain (DH1) (P29597 897-1176): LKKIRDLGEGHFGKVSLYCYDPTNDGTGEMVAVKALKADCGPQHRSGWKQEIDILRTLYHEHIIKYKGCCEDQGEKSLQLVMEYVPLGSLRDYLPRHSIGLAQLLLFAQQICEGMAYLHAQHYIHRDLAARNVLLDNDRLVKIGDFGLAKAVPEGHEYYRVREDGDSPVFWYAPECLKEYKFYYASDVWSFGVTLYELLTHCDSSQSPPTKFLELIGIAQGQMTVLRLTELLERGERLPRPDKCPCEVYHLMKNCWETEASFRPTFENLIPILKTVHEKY
How it was run: as §1

Sequence of human TYK2 (JH2domain-pseudokinase) (P29597 556-888): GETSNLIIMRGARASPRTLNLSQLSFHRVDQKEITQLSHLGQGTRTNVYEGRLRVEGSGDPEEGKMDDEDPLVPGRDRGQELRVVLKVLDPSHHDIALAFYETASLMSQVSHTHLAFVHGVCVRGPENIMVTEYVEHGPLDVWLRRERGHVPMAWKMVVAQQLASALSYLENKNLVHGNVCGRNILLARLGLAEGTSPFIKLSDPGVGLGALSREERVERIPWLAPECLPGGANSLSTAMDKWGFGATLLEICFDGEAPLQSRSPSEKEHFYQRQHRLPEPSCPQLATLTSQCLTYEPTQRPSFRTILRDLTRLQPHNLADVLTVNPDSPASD

| Structure (SMILES) | Kd [1] [nM] | inhibition at 10 µM (JAK2 kinase domain (JH1)) [%] | inhibition at 10 µM (Tyk2 kinase domain (DH1)) [%] | JAK2 JH1% Inhibition @ 10 μM (JAK2 kinase domain (JH1)) | Tyk2 JH1% Inhibition @ 10 μM (Tyk2 kinase domain (DH1)) |
| --- | --- | --- | --- | --- | --- |
| [2H]C([2H])([2H])Oc1ncccc1Nc1cc(NC)n2ncc(C(=O)NC3[C@H]4COC[C@@H]34)c2n1 (stereo partly drawn) [I-447] | < 0.2 | < 50 | < 50 | – | – |
| CNc1cc(Nc2cccnc2OC)nc2c(C(=O)N[C@H]3CCC[C@@H]3O)cnn12 [I-449, (S)—N-((1S,2S)-2-hydroxycyclopentyl)-5-((2-methoxypyridin-3-yl)amino)-7-(methylamino) pyrazolo[1,5-a]pyrimidine-3-carboxamide] | 0.2 to 1 | < 50 | < 50 | – | – |
| CNc1cc(-c2nn(C(C)C)c3ncccc23)nc2c(C(=O)N[C@H]3C[C@H]3F)cnn12 [I-451] | < 0.2 | < 50 | < 50 | – | – |
| CNc1cc(-c2nn(C3CCOC3)c3ncccc23)nc2c(C(=O)N[C@H]3C[C@H]3F)cnn12 (stereo partly drawn) [I-452] | < 0.2 | < 50 | < 50 | – | – |
| CNc1cc(Nc2cccn(CCOC3CC3)c2=O)nc2c(C(=O)NC3CC3)cnn12 [I-453] | 0.2 to 1 | < 50 | < 50 | – | – |
| CNc1cc(Nc2cccn(CCOC3CC3)c2=O)nc2c(C(=O)N[C@@H]3C[C@@H]3F)cnn12 [I-454] | < 0.2 | < 50 | < 50 | – | – |
| CNc1cc(-c2nn(CCN3CCOCC3)c3ncccc23)nc2c(C(=O)NC3CC3)cnn12 [I-455] | 1 to 10 | < 50 | < 50 | – | – |
| CNc1cc(-c2nn(CCN3CCOCC3)c3ncccc23)nc2c(C(=O)N[C@H]3C[C@H]3F)cnn12 [I-456] | 1 to 10 | < 50 | < 50 | – | – |
| CNc1cc(-c2nn(CCN3CCCCC3)c3ncccc23)nc2c(C(=O)NC3CC3)cnn12 [I-457] | 1 to 10 | < 50 | < 50 | – | – |
| CNc1cc(-c2nn(CCN3CCCCC3)c3ncccc23)nc2c(C(=O)N[C@H]3C[C@H]3F)cnn12 [I-458] | 0.2 to 1 | < 50 | < 50 | – | – |
| [2H]C([2H])([2H])Oc1ncccc1Nc1cc(NC)n2ncc(C(=O)N[C@H]3CCC[C@H](O)C3)c2n1 [I-460] | < 0.2 | < 50 | < 50 | – | – |
| [2H]C([2H])([2H])Oc1ncccc1Nc1cc(NC)n2ncc(C(=O)N[C@H]3CC[C@H](O)C3)c2n1 [I-462] | < 0.2 | < 50 | < 50 | – | – |
| CNc1cc(Nc2cccnc2OC2CC2)nc2c(C(=O)N[C@@H]3CCC[C@H]3O)cnn12 [I-465, 5-((2-cyclopropoxypyridin-3-yl)amino)-N-((1R,2R)-2-hydroxycyclopentyl)-7-(methylamino)pyrazolo[1,5-a]pyrimidine-3-carboxamide] | 0.2 to 1 | – | – | A (percent inhibition at 10 μM lower than 50) | A (percent inhibition at 10 μM lower than 50) |
| CNc1cc(Nc2cccnc2OC2CC2)nc2c(C(=O)N[C@H]3CCC[C@@H]3O)cnn12 [I-466, 5-((2-cyclopropoxypyridin-3-yl)amino)-N-((1S,2S)-2-hydroxycyclopentyl)-7-(methylamino)pyrazolo[1,5-a]pyrimidine-3-carboxamide] | 0.2 to 1 | < 50 | < 50 | – | – |
| CNc1cc(Nc2cccnc2OC)nc2c(C(=O)N[C@H]3CC[C@H](O)C3)cnn12 [I-467] | 0.2 to 1 | < 50 | < 50 | – | – |
| CNc1cc(Nc2cccnc2OC)nc2c(C(=O)NCCC3(O)CC3)cnn12 [I-468, N-(2-(1-hydroxycyclopropyl)ethyl)-5-((2-methoxypyridin-3-yl)amino)-7-(methylamino)pyrazolo[1,5-a]pyrimidine-3-carboxamide] | 0.2 to 1 | < 50 | < 50 | – | – |
| CNc1cc(Nc2cccnc2OC2CC2)nc2c(C(=O)NCCC3(O)CC3)cnn12 [I-469, 5-((2-cyclopropoxypyridin-3-yl)amino)-N-(2-(1-hydroxycyclopropyl)ethyl)-7-(methylamino)pyrazolo[1,5-a]pyrimidine-3-carboxamide] | 1 to 10 | < 50 | < 50 | – | – |

The next lines start with results.

| Kd [1] [nM] | inhibition at 10 µM (JAK2 kinase domain (JH1)) [%] | inhibition at 10 µM (Tyk2 kinase domain (DH1)) [%] | Structure (SMILES) | JAK2 JH1% Inhibition @ 10 μM (JAK2 kinase domain (JH1)) | Tyk2 JH1% Inhibition @ 10 μM (Tyk2 kinase domain (DH1)) |
| --- | --- | --- | --- | --- | --- |
| < 0.2 | < 50 | < 50 | [2H]C([2H])([2H])Oc1ncccc1Nc1cc(NC)n2ncc(C(=O)NCCC3(O)CC3)c2n1 [I-470, N-(2-(1-hydroxycyclopropyl)ethyl)-5-((2-(methoxy-d3)pyridin-3-yl)amino)-7-(methylamino)pyrazolo[1,5-a]pyrimidine-3-carboxamide] | – | – |
| 0.2 to 1 | < 50 | < 50 | CNc1cc(Nc2cccn(C3CCCN(C)C3)c2=O)nc2c(C(=O)NC3CC3)cnn12 (stereo not drawn) [I-471] | – | – |
| 0.2 to 1 | < 50 | < 50 | CNc1cc(Nc2cccn(CCOC3CC3)c2=O)nc2c(C(=O)N[C@@H]3CC[C@H]3O)cnn12 [I-472, 5-((1-(2-cyclopropoyethyl)-2-oxo-1,2-dihydropyridin-3-yl)amino)-N-(2-hydroxycyclobutyl)-7-(methylamino)pyrazolo[1,5-a]pyrimidine-3-carboxamide] | – | – |
| 0.2 to 1 | < 50 | < 50 | CNc1cc(Nc2cccn(CCOC3CC3)c2=O)nc2c(C(=O)N[C@@H]3CC[C@@H]3O)cnn12 [I-473] | – | – |
| < 0.2 | < 50 | < 50 | CNc1cc(Nc2cccn([C@H]3CCCOC3)c2=O)nc2c(C(=O)N[C@@H]3C[C@@H]3F)cnn12 [I-475] | – | – |
| < 0.2 | < 50 | < 50 | CNc1cc(Nc2cccnc2OC)nc2c(C(=O)NC(C)(C)C#N)cnn12 [I-476, N-(2-cyanopropan-2-yl)-5-((2-methoxypyridin-3-yl)amino)-7-(methylamino)-pyrazolo[1,5-a]pyrimidine-3-carboxamide] | – | – |
| 0.2 to 1 | < 50 | < 50 | CCCCn1cc(-c2cc(NC)n3ncc(C(=O)NC4CC4)c3n2)c2cccnc21 [I-477] | – | – |
| 0.2 to 1 | < 50 | < 50 | CCCCn1cc(-c2cc(NC)n3ncc(C(=O)N[C@@H]4C[C@@H]4F)c3n2)c2cccnc21 [I-478, 5-(1-butyl-1H-pyrrolo[2,3-b]pyridine-3-yl)-N-((1R,2S)-2-fluorocyclopropyl)-7-(methylamino)pyrazolo[1,5-a]pyrimidine-3-carboxamide] | – | – |
| 1 to 10 | < 50 | < 50 | CNc1cc(-c2nn(CCN3CCN(C)CC3)c3ncccc23)nc2c(C(=O)NC3CC3)cnn12 [I-479] | – | – |
| 0.2 to 1 | < 50 | < 50 | CNc1cc(-c2nn(CCN3CCN(C)CC3)c3ncccc23)nc2c(C(=O)N[C@H]3C[C@H]3F)cnn12 [I-480] | – | – |
| 0.2 to 1 | < 50 | < 50 | CNc1cc(Nc2cccc(N3CC[C@@H](OC)C3)n2)nc2c(C(=O)NC3CC3)cnn12 [I-481] | – | – |
| 0.2 to 1 | – | – | CNc1cc(Nc2cccc(N3CC[C@@H](OC)C3)n2)nc2c(C(=O)NC3CC3)cnn12 [I-482] | A (percent inhibition at 10 μM lower than 50) | A (percent inhibition at 10 μM lower than 50) |
| < 0.2 | < 50 | < 50 | CNc1cc(Nc2cccnc2OC)nc2c(C(=O)NC[C@@H](C)CO)cnn12 [I-484] | – | – |
| 0.2 to 1 | – | – | CNc1cc(Nc2cccn([C@H]3CCC[C@@H]3OC)c2=O)nc2c(C(=O)N[C@@H]3C[C@@H]3F)cnn12 [I-485] | A (percent inhibition at 10 μM lower than 50) | A (percent inhibition at 10 μM lower than 50) |
| 0.2 to 1 | < 50 | < 50 | CNc1cc(Nc2cccn([C@@H]3CCC[C@H]3OC)c2=O)nc2c(C(=O)N[C@@H]3C[C@@H]3F)cnn12 [I-486] | – | – |
| < 0.2 | – | – | CNc1cc(Nc2cccnc2OC)nc2c(C(=O)N[C@H]3CC[C@H](O)C3)cnn12 [I-487] | A (percent inhibition at 10 μM lower than 50) | A (percent inhibition at 10 μM lower than 50) |
| < 0.2 | < 50 | < 50 | CNc1cc(Nc2cccnc2OC)nc2c(C(=O)N[C@@H]3CC[C@@H](O)C3)cnn12 [I-488] | – | – |
| < 0.2 | < 50 | < 50 | CNc1cc(Nc2cccnc2OC2CC2)nc2c(C(=O)N[C@@H]3CC[C@@H](O)C3)cnn12 [I-490, 5-((2-cyclopropoxypyridin-3-yl)amino)-N-((1R,3R)-3-hydroxycyclopentyl)-7-(methylamino)pyrazolo[1,5-a]pyrimidine-3-carboxamide] | – | – |
| 1 to 10 | < 50 | < 50 | CNc1cc(Nc2cccn([C@H]3CCC[C@H]3OC)c2=O)nc2c(C(=O)NC3CC3)cnn12 [I-491] | – | – |
| < 0.2 | < 50 | < 50 | CNc1cc(Nc2cccnc2OC2CC2)nc2c(C(=O)NC(C)(C)C#N)cnn12 [I-492, N-(2-cyanopropan-2-yl)-5-((2-cyclopropoxypyridin-3-yl)amino)-7-(methylamino)pyrazolo[1,5-a]pyrimidine-3-carboxamide] | – | – |

From patent US10508120B2, “TYK2 inhibitors and uses thereof” (Nimbus Lakshmi, Inc., priority 2017, dated 2019)
